# According to patent US7507839B2, “Therapeutic ion channel blocking agents and methods of use thereof” (The Walter and Eliza Hall Institute of Medical Research, priority 2002, dated 2009):
# Key:
# [1] = target: Kv1.3 (UniProt P16390); experiment: Whole-cell patch-clamp block of Kv1.3 current; assay type: cell-based; conditions: for Kd: L929 cells stably expressing mKv1.3 or activated human T cells, fit of normalized peak current to Hill equation
# Experimental: The effectiveness of the generated compounds in blocking the Kv1.3 current was assayed on L929 cells stably expressing mKv1.3 or on activated human T cells. The generation of this cell line has been previously described (Grissmer et al. (1995) Mol. Pharmacol. 45: 1227). The cells were grown in Dulbecco's modified Eagle's medium containing 10% fetal calf serum, 2 mM L-glutamine, 1 mM Na^+ pyruvate, 100 units/ml penicillin, 100 μg/ml streptomycin and 250 μg G418 (to keep them under selection pressure). The cells were studied in the whole-cell configuration of the patch-clamp technique. The holding potential in all experiments was −80 mV. Currents were recorded in normal Ringer solution (160 mM NaCl, 4.5 mM KCl, 2 mM CaCl2, 1 mM MgCl2, 10 mM HEPES, pH 7.4, 290-310 mOsm) with an internal pipette solution containing 134 mM KF, 2 mM MgCl2, 10 mM HEPES, 10 mM EGTA (pH 7.2, 290-310 mOsm). If currents exceeded 2 nA 60-80% series resistance compensation was used. 200-ms depolarising pulses to 40 mV were applied every 30 s (Grissmer at al. (1995) Mol. Pharmacol. 45: 1227). Each compound was tested twice at two different concentrations. Kd values were determined by fitting the reduction of the normalized peak current to the Hill equation. […]
# [2] = target: Kv1.2 (Homo sapiens, UniProt P16389); experiment: Whole-cell patch-clamp, Kv1.2; assay type: cell-based
# Sequence of Kv1.2 (P16389 whole entry): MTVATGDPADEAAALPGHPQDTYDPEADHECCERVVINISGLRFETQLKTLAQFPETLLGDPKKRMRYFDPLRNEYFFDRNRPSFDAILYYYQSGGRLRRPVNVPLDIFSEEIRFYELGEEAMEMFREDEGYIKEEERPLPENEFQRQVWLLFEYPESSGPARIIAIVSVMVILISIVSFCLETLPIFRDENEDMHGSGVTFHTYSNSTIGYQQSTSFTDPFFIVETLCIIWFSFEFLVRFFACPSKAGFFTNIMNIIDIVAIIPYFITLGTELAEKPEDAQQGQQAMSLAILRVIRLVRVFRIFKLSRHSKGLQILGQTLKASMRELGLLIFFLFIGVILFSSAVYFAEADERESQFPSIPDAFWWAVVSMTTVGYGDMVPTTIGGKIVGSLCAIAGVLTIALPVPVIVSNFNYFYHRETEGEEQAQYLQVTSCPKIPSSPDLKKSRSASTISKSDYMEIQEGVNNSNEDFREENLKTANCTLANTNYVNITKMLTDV
# [3] = Solubility in aqueous media; assay type: physicochemical; conditions: judged by whether testable in the cell-based T-cell proliferation assay
# From the text: (§1) The comparative example 4 was thus considered to lack therapeutically use.
# This was unexpected given the lipophilicity of these compounds. The n-butyl fragment in example 2 is considerably more lipophilic than the phenyl group located in the equivalent position of comparative example 4 (fragment hydrophobicity value 2.5 verses 1.9 respectively).
# [4] = target: Kv1.1 (Homo sapiens, UniProt Q09470); experiment: Whole-cell patch-clamp, Kv1.1; assay type: cell-based
# Sequence of Kv1.1 (Q09470 whole entry): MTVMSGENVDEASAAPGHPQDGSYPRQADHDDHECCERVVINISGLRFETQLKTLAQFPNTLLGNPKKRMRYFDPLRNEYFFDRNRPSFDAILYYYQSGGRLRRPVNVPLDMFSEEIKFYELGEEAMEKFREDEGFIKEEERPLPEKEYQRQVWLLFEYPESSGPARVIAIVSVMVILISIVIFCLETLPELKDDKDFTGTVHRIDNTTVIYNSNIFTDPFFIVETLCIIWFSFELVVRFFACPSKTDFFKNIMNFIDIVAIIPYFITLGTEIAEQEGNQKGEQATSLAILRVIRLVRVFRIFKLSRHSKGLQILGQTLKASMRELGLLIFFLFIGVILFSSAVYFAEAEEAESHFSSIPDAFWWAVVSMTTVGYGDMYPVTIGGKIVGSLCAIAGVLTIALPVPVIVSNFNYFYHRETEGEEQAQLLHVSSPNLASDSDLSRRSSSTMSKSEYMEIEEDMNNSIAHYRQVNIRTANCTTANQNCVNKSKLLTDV
# [5] = test system: peripheral blood mononuclear cells; experiment: [3H]-Thymidine incorporation assay; assay type: cell-based, human; conditions: anti-CD3 stimulated PBMC, 48 h; for Normalised [3H]-TdR incorporation: untreated control = 1
# Experimental: [^3H]-thymidine incorporation is a widely used test to assay the proliferative activity of human and rodent lymphocytes. As cells divide [^3H]-thymidine will be incorporated into the newly synthesised DNA of the resulting daughter cells. The faster cells grow the more radioactive [^3H]-thymidine will be incorporated. Any compound that inhibits lymphocytes proliferation will reduce the uptake of radioactivity by the cells treated with it compared to the untreated controls.
# Example 2 was tested to determine its ability to inhibit [H]-thymidine incorporation. Resting peripheral blood mononuclear cells from healthy volunteers were seeded at 2×10^5 cells per well in medium (RPMI 1640 supplemented 10% fetal calf serum, 2 mM glutamine, 1 mM sodium pyruvate, 1% nonessential amino acids, 100 units/ml penicillin, 100 μg/ml streptomycin and 50 μM β-mercaptoethanol) in flat-bottom 96 well plates (final volume 200 μl). Cells were pre-incubated with the compound of example 2 for 60 min, and were stimulated with 5 ng/ml anti-CD3 Ab) for 48 h. [^3H]-Thymidine (1 μCi per well) was added for the last 6 h. Cells were harvested onto glass fibre filters and radioactivity measured in a scintillation counter. All experiments were done in triplicate.
# [6] = target: Kv1.4 (Homo sapiens, UniProt P22459); experiment: Whole-cell patch-clamp, Kv1.4; assay type: cell-based
# Sequence of Kv1.4 (P22459 whole entry): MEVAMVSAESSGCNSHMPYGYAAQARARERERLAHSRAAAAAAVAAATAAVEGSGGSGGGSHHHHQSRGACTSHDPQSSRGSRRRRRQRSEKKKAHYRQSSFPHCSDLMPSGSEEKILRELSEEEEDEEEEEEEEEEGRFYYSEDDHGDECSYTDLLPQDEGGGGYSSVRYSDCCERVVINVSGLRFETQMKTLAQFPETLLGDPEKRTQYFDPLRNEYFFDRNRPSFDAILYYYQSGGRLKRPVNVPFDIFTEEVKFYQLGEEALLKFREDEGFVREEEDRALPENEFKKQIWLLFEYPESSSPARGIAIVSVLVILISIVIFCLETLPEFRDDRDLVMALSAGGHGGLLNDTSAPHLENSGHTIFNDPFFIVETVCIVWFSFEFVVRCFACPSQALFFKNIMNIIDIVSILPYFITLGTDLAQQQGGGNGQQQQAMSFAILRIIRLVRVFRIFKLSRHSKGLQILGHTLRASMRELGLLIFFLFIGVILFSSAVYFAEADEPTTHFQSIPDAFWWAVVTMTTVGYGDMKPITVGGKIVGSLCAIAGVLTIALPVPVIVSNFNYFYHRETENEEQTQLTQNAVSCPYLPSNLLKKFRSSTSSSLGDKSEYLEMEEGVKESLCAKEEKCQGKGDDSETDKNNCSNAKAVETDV
# [7] = target: Kv1.5 (Homo sapiens, UniProt P22460); experiment: Whole-cell patch-clamp, Kv1.5; assay type: cell-based
# Sequence of Kv1.5 (P22460 whole entry): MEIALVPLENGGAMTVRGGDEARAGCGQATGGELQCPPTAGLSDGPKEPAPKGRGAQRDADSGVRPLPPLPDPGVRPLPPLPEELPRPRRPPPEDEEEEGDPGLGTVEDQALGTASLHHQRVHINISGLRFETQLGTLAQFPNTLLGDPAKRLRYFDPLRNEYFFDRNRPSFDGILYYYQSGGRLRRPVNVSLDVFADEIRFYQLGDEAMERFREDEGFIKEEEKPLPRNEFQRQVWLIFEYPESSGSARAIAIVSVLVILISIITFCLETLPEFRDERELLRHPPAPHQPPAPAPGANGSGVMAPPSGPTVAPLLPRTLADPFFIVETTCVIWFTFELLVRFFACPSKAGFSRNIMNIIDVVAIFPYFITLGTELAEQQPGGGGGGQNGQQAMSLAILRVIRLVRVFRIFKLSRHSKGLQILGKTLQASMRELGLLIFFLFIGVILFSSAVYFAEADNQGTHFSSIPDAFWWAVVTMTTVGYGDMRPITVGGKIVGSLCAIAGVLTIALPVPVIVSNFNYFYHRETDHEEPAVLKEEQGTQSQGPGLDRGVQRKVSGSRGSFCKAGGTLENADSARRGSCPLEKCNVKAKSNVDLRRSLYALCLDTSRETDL
# [8] = target: IKCa1 (Homo sapiens, UniProt O15554); experiment: Whole-cell patch-clamp, IKCa1; assay type: cell-based
# [9] = target: SKMI (Homo sapiens, UniProt P35499); experiment: Whole-cell patch-clamp, SKMI; assay type: cell-based; conditions: at 10 μM
# Sequence of SKMI (P35499 whole entry): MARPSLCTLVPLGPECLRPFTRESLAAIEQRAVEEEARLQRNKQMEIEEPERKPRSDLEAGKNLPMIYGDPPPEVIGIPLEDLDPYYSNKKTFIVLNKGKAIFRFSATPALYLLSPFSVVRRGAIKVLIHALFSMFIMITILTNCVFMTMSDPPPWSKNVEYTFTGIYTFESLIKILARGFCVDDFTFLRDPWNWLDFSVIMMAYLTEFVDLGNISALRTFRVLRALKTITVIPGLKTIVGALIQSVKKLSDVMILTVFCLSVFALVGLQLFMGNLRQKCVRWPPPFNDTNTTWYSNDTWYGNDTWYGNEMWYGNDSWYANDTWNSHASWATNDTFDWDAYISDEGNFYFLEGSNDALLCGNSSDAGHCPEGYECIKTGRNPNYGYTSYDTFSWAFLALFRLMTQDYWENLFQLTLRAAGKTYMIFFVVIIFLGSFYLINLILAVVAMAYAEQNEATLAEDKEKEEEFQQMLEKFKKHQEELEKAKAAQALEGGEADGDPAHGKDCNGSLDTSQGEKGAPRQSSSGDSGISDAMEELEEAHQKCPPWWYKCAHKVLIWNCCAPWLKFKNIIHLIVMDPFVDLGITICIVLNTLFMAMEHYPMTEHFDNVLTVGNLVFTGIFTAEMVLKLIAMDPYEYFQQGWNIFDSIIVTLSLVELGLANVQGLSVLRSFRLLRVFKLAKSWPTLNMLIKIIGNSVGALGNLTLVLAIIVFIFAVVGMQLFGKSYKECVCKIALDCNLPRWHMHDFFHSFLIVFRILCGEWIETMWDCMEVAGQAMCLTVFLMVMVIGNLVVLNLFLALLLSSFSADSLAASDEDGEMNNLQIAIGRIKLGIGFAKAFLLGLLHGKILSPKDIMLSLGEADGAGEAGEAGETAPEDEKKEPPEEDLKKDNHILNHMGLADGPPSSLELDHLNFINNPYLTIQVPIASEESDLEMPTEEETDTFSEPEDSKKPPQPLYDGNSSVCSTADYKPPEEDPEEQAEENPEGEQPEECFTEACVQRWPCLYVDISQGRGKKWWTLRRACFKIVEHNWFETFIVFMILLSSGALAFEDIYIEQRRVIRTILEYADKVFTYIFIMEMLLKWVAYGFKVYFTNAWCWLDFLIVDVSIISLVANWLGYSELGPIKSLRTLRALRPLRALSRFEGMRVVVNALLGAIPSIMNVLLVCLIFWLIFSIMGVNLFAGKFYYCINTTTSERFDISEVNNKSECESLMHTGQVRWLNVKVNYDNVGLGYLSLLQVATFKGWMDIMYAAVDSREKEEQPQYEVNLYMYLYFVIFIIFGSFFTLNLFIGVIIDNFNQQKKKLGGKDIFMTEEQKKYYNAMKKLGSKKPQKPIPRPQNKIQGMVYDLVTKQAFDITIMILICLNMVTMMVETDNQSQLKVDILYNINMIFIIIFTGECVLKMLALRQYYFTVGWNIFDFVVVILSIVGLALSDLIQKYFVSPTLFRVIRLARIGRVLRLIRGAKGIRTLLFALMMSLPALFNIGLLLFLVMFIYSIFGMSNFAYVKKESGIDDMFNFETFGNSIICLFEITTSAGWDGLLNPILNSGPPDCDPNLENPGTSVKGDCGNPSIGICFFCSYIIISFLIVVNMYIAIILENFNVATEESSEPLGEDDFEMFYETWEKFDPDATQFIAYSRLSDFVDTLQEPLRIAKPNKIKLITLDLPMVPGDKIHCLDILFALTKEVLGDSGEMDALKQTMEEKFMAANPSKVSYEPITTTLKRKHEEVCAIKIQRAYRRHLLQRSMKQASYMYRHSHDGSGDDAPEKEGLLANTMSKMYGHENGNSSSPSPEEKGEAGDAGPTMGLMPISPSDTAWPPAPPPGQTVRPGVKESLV
# [10] = Stability; assay type: physicochemical
# From the text: as §1
compound,measurement,setting,value
COc1c(C(C)=O)c(O)c(OC)c2occc12 [Comparative Example 1 (Khellinone)],Kd,[1],70000 nM
COc1c2occc2cc2ccc(=O)oc12 [Comparative Example 2 (3-MOP)],Kd,[1],160000 nM
COc1c(C(C)=O)c(OCCCCCOc2c(C(C)=O)c(OC)c3ccoc3c2OC)c(OC)c2occc12 [Example 1],Kd,[1],820 nM
same,Kd,[2],1500 nM
same,Solubility in aqueous media,[3],soluble enough in aqueous media to be tested
COc1c(C(C)=O)c(OCCCCCCOc2c(C(C)=O)c(OC)c3ccoc3c2OC)c(OC)c2occc12 [Example 2],Kind of block (Kv1.3),[1],Block phasic
same,Kd,[1],680 nM
same,Kd,[4],320 nM
same,Kd,[2],250 nM
same,Normalised [3H]-TdR incorporation,[5]; 100 nM,0.86 +/− 0.04
same,Normalised [3H]-TdR incorporation,[5]; 250 nM,0.76 +/− 0.06
same,Normalised [3H]-TdR incorporation,[5]; 1 μM,0.38 +/− 0.05
same,Normalised [3H]-TdR incorporation,[5]; 10 μM,0.01 +/− 0.003
same,EC50,"[5]; Homo sapiens, read-out: EC50, inhibition of [3H]-thymidine incorporation",~800 nM
same,Solubility in aqueous media,[3],soluble enough in aqueous media to be tested
"COc1c(C(C)=O)c(OCc2ccc(COc3cc4occc4c(OC)c3C(C)=O)cc2)cc2occc12 [Example 4, 1,4-bis(5-acetyl-4-methoxybenzofuran-6-yloxymethyl)benzene]",Kd,[1],1100 nM
same,Effect on Kv1.2,[2]; at 5 μM,No effect
COc1c(C(C)=O)c(OCCOCCOc2c(C(C)=O)c(OC)c3ccoc3c2OC)c(OC)c2occc12 [Example 5],Kd,[1],4000 nM
same,Solubility in aqueous media,[3],significantly more soluble in aqueous conditions than comparative example 2
"COC(=O)c1cc(COc2c(C(C)=O)c(OC)c3ccoc3c2OC)ccc1COc1c(C(C)=O)c(OC)c2ccoc2c1OC [Example 7, 2,5-Bis(5-acetyl-4,7-dimethoxy-6-benzofuran-6-yloxymethyl)benzoic acid, methyl ester]",Kd,[1],3000 nM
same,melting point,,87 to 89 °C
"COc1c(C(C)=O)c(OCc2ccc(COc3c(C(C)=O)c(OC)c4ccoc4c3OC)c(C(=O)O)c2)c(OC)c2occc12 [Example 8, 2,5-Bis(5-acetyl-4,7-dimethoxybenzofuran-6-yloxymethyl)benzoic acid]",Kd,[1],5000 nM
"O=c1ccc2cc3ccoc3c(OCc3ccc(COc4c5occc5cc5ccc(=O)oc45)cc3)c2o1 [compound 3, reference compound]",Kd,[1],17000 nM
COc1c(C(C)=O)c(OCc2ccc(COc3c(C(C)=O)c(OC)c4ccoc4c3OC)cc2)c(OC)c2occc12 [compound 4],Kd,[1],280 nM
same,Kd,[4],3000 nM
same,Kd,[2],5000 nM
same,Kd,[6],2200 nM
same,Kd,[7],1100 nM
same,Kd,[8],> 20000 nM
same,Effect on SKMI,[9],No effect
same,Solubility in aqueous media,[3],so poorly soluble in aqueous media
same,Stability,[10],good stability
"COc1c(C(C)=O)c(OCc2cccc(COc3c(C(C)=O)c(OC)c4ccoc4c3OC)c2)c(OC)c2occc12 [compound 5, reference compound]",Kd,[1],560 nM
"COc1c(C(C)=O)c(OCc2ccccc2COc2c(C(C)=O)c(OC)c3ccoc3c2OC)c(OC)c2occc12 [compound 6, reference compound]",Kd,[1],7000 nM
